According to patent US10544140B2, “Pharmaceutical composition containing, as active ingredient, 7-azaindolin-2-one derivative or pharmaceutically acceptable salt thereof” (LG CHEM, LTD., priority 2015, dated 2020):

Assays:
HT-29 (colon cancer) = experiment: Cytotoxicity test by MTT assay, HT-29; format: cell-based, human; settings: for IC50: Homo sapiens, HT-29, 48 h; for cytotoxicity compared with the reference drug sunitinib: HT-29
Procedure: (§1) A cytotoxicity test was measured by MTT assay. Each cell line was cultured in a 96-well plate at a density of 1×10^4 cells/well. After 24 hours, the culture medium containing 1% FBS (fetal bovine serum) was treated and reacted with compounds or solutions of compounds for 48 hours. MTT (3-(4,5-dimethylthiazol-2-yl)-2,5-diphenyltetrazolium bromide) solution (5 mg/mL) was added to each well and reacted for 4 hours in an incubator. […] After reacting in an incubator for 30 minutes, the formation of formazan was quantified using a microplate reader at an absorbance of 540 nm. […] The human cancer cell lines used herein are MCF-7 (breast cancer), MDA-MB-231 (breast cancer), HT-29 (colon cancer), DU145 (prostate cancer), U937 (myeloid leukemia), A549 (lung cancer), PANC-1 (pancreatic cancer) and MIA PaCa-2 (pancreatic cancer).

A549 (lung cancer) = experiment: Cytotoxicity test by MTT assay, A549; format: cell-based, human; settings: for IC50: Homo sapiens, A549, 48 h; for cytotoxicity compared with the reference drug sunitinib: A-549
Procedure: as §1

[1] = Cytotoxicity test by MTT assay, HEK293 normal cell line; format: cell-based; settings: human, HEK293 cells (normal cell line)
Procedure: (§2) A cytotoxicity test was measured by MTT assay. Each cell line was cultured in a 96-well plate at a density of 1×10^4 cells/well. After 24 hours, the culture medium containing 1% FBS (fetal bovine serum) was treated and reacted with compounds or solutions of compounds for 48 hours. MTT (3-(4,5-dimethylthiazol-2-yl)-2,5-diphenyltetrazolium bromide) solution (5 mg/mL) was added to each well and reacted for 4 hours in an incubator. […] After reacting in an incubator for 30 minutes, the formation of formazan was quantified using a microplate reader at an absorbance of 540 nm.

[2] = tested on: PANC-1 (human pancreatic cancer cell line); experiment: Cytotoxicity test by MTT assay, PANC-1; format: cell-based; settings: for IC50 / cytotoxicity at 30 µM: Homo sapiens; for IC50: PANC-1, 48 h; for cytotoxicity at 30 µM: PANC-1, 30 μM, 48 h, read-out: Cell viability (% inhibition)
Procedure: (§3) A cytotoxicity test was measured by MTT assay. Each cell line was cultured in a 96-well plate at a density of 1×10^4 cells/well. […] MTT (3-(4,5-dimethylthiazol-2-yl)-2,5-diphenyltetrazolium bromide) solution (5 mg/mL) was added to each well and reacted for 4 hours in an incubator. […] After reacting in an incubator for 30 minutes, the formation of formazan was quantified using a microplate reader at an absorbance of 540 nm. […] At this time, sunitinib was used as a control group. […] The human cancer cell lines used herein are MCF-7 (breast cancer), MDA-MB-231 (breast cancer), HT-29 (colon cancer), DU145 (prostate cancer), U937 (myeloid leukemia), A549 (lung cancer), PANC-1 (pancreatic cancer) and MIA PaCa-2 (pancreatic cancer).

DU145 (prostate cancer) = experiment: Cytotoxicity test by MTT assay, DU145; format: cell-based, human; settings: DU-145; for IC50: Homo sapiens, DU145, 48 h
Procedure: as §1

[3] = tested on: MDA-MB-231 (breast cancer); experiment: Cytotoxicity test by MTT assay, MDA-MB-231; format: cell-based, human; settings: for IC50: Homo sapiens, MBA-MB-231, 48 h
Procedure: as §1

U937 (myeloid leukemia) = experiment: Cytotoxicity test by MTT assay, U937; format: cell-based, human; settings: for IC50: Homo sapiens, U-937, U937, 48 h
Procedure: as §1

[4] = Cytotoxicity test by MTT assay, CHO-K1 normal cell line; format: cell-based; settings: Chinese hamster, CHO-K1 cells (normal cell line)
Procedure: as §2

[5] = tested on: MCF-7 (human breast cancer cell line); experiment: Cytotoxicity test by MTT assay, MCF-7; format: cell-based; settings: for cytotoxicity at 30 µM / IC50: Homo sapiens, MCF7; for cytotoxicity at 30 µM: MCF-7, 30 μM, 48 h, read-out: Cell viability (% inhibition); for IC50: MCF-7, 48 h; for cytotoxicity compared with the reference drug sunitinib: MCF-7
Procedure: as §3

[6] = tested on: MIA PaCa-2 (pancreatic cancer); experiment: Cytotoxicity test by MTT assay, MIA PaCa-2; format: cell-based, human; settings: for IC50: Homo sapiens, MIA PaCa-2, 48 h
Procedure: as §1

Row | Compound | IC50 (HT-29 (colon cancer)) [µM] | IC50 (A549 (lung cancer)) [µM] | IC50 at 48 h [1] [µM] | IC50 [2] [µM] | cytotoxicity at 30 µM [2] [%] | cytotoxicity compared with the reference drug sunitinib (DU145 (prostate cancer)) | IC50 (DU145 (prostate cancer)) [µM] | IC50 [3] [µM] | IC50 (U937 (myeloid leukemia)) [µM] | IC50 at 48 h [4] [µM] | cytotoxicity at 30 µM [5] [%] | IC50 [5] [µM] | cytotoxicity compared with the reference drug sunitinib ([2]; PANC-1) | IC50 [6] [µM] | cytotoxicity compared with the reference drug sunitinib ([6]; MIA PaCa-2) | cytotoxicity compared with the reference drug sunitinib [3] | cytotoxicity compared with the reference drug sunitinib [5] | also measured
1 | COc1ccc(OC)c(/C=C2\C(=O)Nc3nc(C)c(O)c(C)c32)c1 [Compound I-15, (Z)-3-(2,5-Dimethoxybenzylidene)-5-hydroxy-4,6-dimethyl-1H-pyrrolo[2,3-b]pyridin-2(3H)-one] | 16.6 | 47.5 | 37.8 | 19.5 | 69.2 | greater than or equal to that of the reference drug sunitinib | 5.55 | 22.9 | 33 | 47.5 | 67.5 | 20.9 |  |  |  |  |  | 
2 | CCNCCNC(=O)c1c(C)[nH]c(/C=C2\C(=O)Nc3nc(C)c(O)c(C)c32)c1C [Compound I-40, (Z)—N-(2-(Ethylamino)ethyl)-5-((5-hydroxy-4,6-dimethyl-2-oxo-1H-pyrrolo[2,3-b]pyridin-3(2H)-ylidene)methyl)-2,4-dimethyl-1H-pyrrole-3-carboxamide] | 1.45 | 1.47 | 19.1 | 1.02 |  | greater than or equal to that of the reference drug sunitinib | 0.26 | 1.47 |  | 40.7 |  | 1.32 | greater than or equal to that of the reference drug sunitinib | 1.58 | greater than or equal to that of the reference drug sunitinib | greater than or equal to that of the reference drug sunitinib | greater than or equal to that of the reference drug sunitinib | cytotoxicity compared with the reference drug sunitinib (HT-29 (colon cancer)): greater than or equal to that of the reference drug sunitinib; cytotoxicity compared with the reference drug sunitinib (A549 (lung cancer)): greater than or equal to that of the reference drug sunitinib
3 | CCN(CC)CCNC(=O)c1c(C)[nH]c(/C=C2\C(=O)Nc3nc(C)c(O)c(C)c32)c1C [Compound I-39, (Z)—N-(2-(Diethylamino)ethyl)-5-((5-hydroxy-4,6-dimethyl-2-oxo-1H-pyrrolo[2,3-b]pyridin-3(2H)-ylidene)methyl)-2,4-dimethyl-1H-pyrrole-3-carboxamide] | 20.9 | 19.9 | 40.7 | 15.1 | 69.6 | greater than or equal to that of the reference drug sunitinib | 2.88 | 5.31 | 8.01 | > 90 | 62.7 | 6.09 | greater than or equal to that of the reference drug sunitinib | 7.94 | greater than or equal to that of the reference drug sunitinib | greater than or equal to that of the reference drug sunitinib | greater than or equal to that of the reference drug sunitinib | 
4 | Cc1nc2c(c(C)c1O)/C(=C/c1[nH]c(C)c(C(=O)NC3CCCCC3)c1C)C(=O)N2 [Compound I-41, (Z)—N-Cyclohexyl-5-((5-hydroxy-4,6-dimethyl-2-oxo-1H-pyrrolo[2,3-b]pyridin-3(2H)-ylidene)methyl)-2,4-dimethyl-1H-pyrrole-3-carboxamide] | 4.47 | 6.08 | 37.1 | 5.88 | 78.3 | greater than or equal to that of the reference drug sunitinib | < 1 | 3.52 | 3.21 | 43.4 | 78.1 | 6.9 | greater than or equal to that of the reference drug sunitinib | 5.01 | greater than or equal to that of the reference drug sunitinib | greater than or equal to that of the reference drug sunitinib | greater than or equal to that of the reference drug sunitinib | cytotoxicity compared with the reference drug sunitinib (HT-29 (colon cancer)): greater than or equal to that of the reference drug sunitinib; cytotoxicity compared with the reference drug sunitinib (A549 (lung cancer)): greater than or equal to that of the reference drug sunitinib; cytotoxicity compared with the reference drug sunitinib (U937 (myeloid leukemia); U937): greater than or equal to that of the reference drug sunitinib
5 | COc1ccc(Br)cc1/C=C1\C(=O)Nc2nc(C)c(O)c(C)c21 [Compound I-17, (Z)-3-(5-bromo-2-methoxybenzylidene)-5-hydroxy-4,6-dimethyl-1H-pyrrolo[2,3-b]pyridin-2(3H)-one] | 25.1 | 10.1 | 33 |  | 71.7 | greater than or equal to that of the reference drug sunitinib | 4.57 | 10.5 | 12.6 | 30.1 | 74.7 | 11 |  |  |  |  |  | 
6 | CCN(CC)CCNC(=O)c1c(C)[nH]c(/C=C2\C(=O)Nc3ccc(F)cc32)c1C [Sunitinib, sunitinib, reference compound] | 4.89 | 6.98 | 7.3 |  |  |  | 5.88 | 6.09 | 6.98 |  |  |  |  | 8.51 |  |  |  | 
7 | Cc1nc2c(c(C)c1O)/C(=C/c1ccc(N(C)C)cc1)C(=O)N2 [Compound I-18, (Z)-3-(4-(Dimethylamino)benzylidene)-5-hydroxy-4,6-dimethyl-1H-pyrrolo[2,3-b]pyridin-2(3H)-one] | 36.3 | 13.2 | > 90 | 13.8 | 66.3 | greater than or equal to that of the reference drug sunitinib | 1.14 | 12.1 |  | > 90 | 62.5 | 13.2 | greater than or equal to that of the reference drug sunitinib | 11.5 |  |  |  | 
8 | Nc1ccn([C@@H]2O[C@H](CO)[C@@H](O)C2(F)F)c(=O)n1 [Gemcitabine, reference compound] |  |  |  | > 1000 |  |  |  |  |  |  |  |  |  | > 1000 |  |  |  | resistance of the cell line to the drug ([2]; PANC-1): resistance to gemcitabine; resistance of the cell line to the drug ([6]; MIA PaCa-2): resistance to gemcitabine
